# Source: ChEMBL document CHEMBL1139343, “Pharmacophore guided discovery of small-molecule human apurinic/apyrimidinic endonuclease 1 inhibitors” (J Med Chem, 2009)
# Molecular target: not listed separately
# Assay: Inhibition of exonuclase 3
row,SMILES,IC50 [µM]
1,O=C(O)CCN1C(=O)/C(=C2/C(=O)N(CC(=O)O)c3ccccc32)SC1=S,60
2,O=C(O)CCc1ccc(-c2ccc(Cl)cc2)n1CC(=O)O,> 100
3,O=C(O)Cn1c(CCCCc2nc3ccccc3n2CC(=O)O)nc2ccccc21,80
4,O=C(O)CN1C(=O)/C(=C\c2ccc(-c3cccc(C(=O)O)c3)o2)SC1=S,70
5,O=C(O)Cc1cc(S(=O)(=O)c2ccc(Sc3ccc(C(=O)O)cc3)cc2)ccc1C(=O)O,90
6,Cc1oc(C)c(C(=O)O)c1COc1ccccc1C(=O)O,98

# Molecular target: DNA repair nuclease/redox regulator APEX1 (Homo sapiens, UniProt P27695)
# Assay: Inhibition of purified human recombinant APE1 expressed in Escherichia coli M15 cells
# Sequence of DNA repair nuclease/redox regulator APEX1 (P27695 whole entry): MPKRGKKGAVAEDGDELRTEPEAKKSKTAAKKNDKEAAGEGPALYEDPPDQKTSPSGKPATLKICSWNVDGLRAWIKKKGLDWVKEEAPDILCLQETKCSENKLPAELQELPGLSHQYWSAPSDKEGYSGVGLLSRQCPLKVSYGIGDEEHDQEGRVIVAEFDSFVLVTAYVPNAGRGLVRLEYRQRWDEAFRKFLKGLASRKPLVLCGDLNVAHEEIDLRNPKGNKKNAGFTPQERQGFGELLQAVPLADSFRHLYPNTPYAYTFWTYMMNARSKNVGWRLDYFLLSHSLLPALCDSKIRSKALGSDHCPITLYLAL
row,SMILES,IC50 [µM]
1,O=C(O)CCN1C(=O)/C(=C2/C(=O)N(CC(=O)O)c3ccccc32)SC1=S,6
2,O=C(O)CCc1ccc(-c2ccc(Cl)cc2)n1CC(=O)O,4
3,O=C(O)Cn1c(CCCCc2nc3ccccc3n2CC(=O)O)nc2ccccc21,4
4,O=C(O)c1cccc(S(=O)(=O)N2CCCC(c3nc(O)c4nnn(Cc5ccccc5Cl)c4n3)C2)c1 (stereo unspecified),87
5,CN(c1ccc(C(=O)Nc2ccc(F)cc2)cc1)S(=O)(=O)c1ccccc1,> 100
6,CCS(=O)(=O)Nc1cc2c(C(C)=O)c(C)n(S(=O)(=O)CC)c2cc1C,> 100
7,O=C(O)c1ccccc1C(=O)NCc1ccc(CNC(=O)c2ccccc2C(=O)O)cc1,30
8,O=C(O)CN1C(=O)/C(=C2\SC(=S)NC2=O)c2ccccc21,9
9,O=C(c1ccc2c(c1)C(=O)N(c1ccccc1C(=O)O)C2=O)c1ccc2c(c1)C(=O)N(c1ccccc1C(=O)O)C2=O,8
10,COC(=O)C1C(=O)C2=C(CC1C)NC(C)=C(C(=O)OC1CCCC1)C2c1ccccc1C (stereo unspecified),> 100
11,O=C(O)c1oc2ccccc2c1CSc1ccccn1,27
12,O=S(=O)(c1ccc(OC(F)(F)F)cc1)N1CCCC(c2nc(O)c3nnn(Cc4ccccc4Cl)c3n2)C1 (stereo unspecified),> 100
13,O=C(O)CN1C(=O)/C(=C\c2ccc(-c3cccc(C(=O)O)c3)o2)SC1=S,6
14,CCN1/C(=C2/SC(=S)N(NC(C)=O)C2=O)Sc2ccc(S(=O)(=O)C(F)(F)F)cc21,> 100
15,NC(=O)CSc1nnc(-c2ccc(S(=O)(=O)N3CCCCC3)cc2)n1Cc1ccccc1,> 100
16,O=C(O)CN1C(=O)/C(=C2/C(=O)N(CC(=O)O)c3ccccc32)SC1=S,13
17,Cc1cc(C(=O)O)c(CSCc2cc(C(=O)O)oc2C)o1,20
18,NC(=O)CSc1nc2ccc(NC(=O)c3ccccc3C(=O)O)cc2s1,27
19,COc1ccccc1C(=O)NCC(C)(C)CNC1=NS(=O)(=O)c2ccccc21,> 100

row,SMILES,IC50 [µM]
1,Cn1c(SCC(N)=O)nnc1-c1ccc(NS(C)(=O)=O)cc1,> 100
2,O=S(=O)(c1cc(S(=O)(=O)N2CCOCC2)c2n[n+]3c4cc(S(=O)(=O)N5CCOCC5)cc(S(=O)(=O)N5CCOCC5)c4[n-]n3c2c1)N1CCOCC1,> 100
3,Nc1ncnc2[nH]c(SCCC(=O)O)nc12,20
4,O=S(=O)(O)c1cc(O)c2c(S(=O)(=O)O)cc(S(=O)(=O)O)cc2c1,> 100
5,Nc1ccc(-c2ccc(N)c(S(=O)(=O)O)c2)cc1S(=O)(=O)O,> 100
6,O=C(O)c1cccc(Nc2nc3ccccc3nc2NS(=O)(=O)c2cccc([N+](=O)[O-])c2)c1,> 100
7,COc1cc(C=C2C(=O)OC3(CCCC3)OC2=O)cc(I)c1OCc1ccccc1C#N,> 100
8,O=C(O)CSc1nnc(-c2ccc(S(=O)(=O)N3CCOCC3)cc2)n1Cc1ccco1,> 100
9,CN(C)c1ccc(-c2noc(C3CCN(S(=O)(=O)c4cccc(C(=O)O)c4)CC3)n2)cc1,40
10,CCS(=O)(=O)Nc1cc2c(cc1C)C(S(=O)(=O)CC)C1=C2CCC1 (stereo unspecified),> 100
11,COc1ccc(/C=C/C(=O)O)cc1S(=O)(=O)NC1CCS(=O)(=O)C1 (stereo unspecified),> 100
12,O=P(O)(O)c1ccccc1OCCOc1ccccc1P(=O)(O)O,> 100
13,O=C(O)CCSc1nnc(SCCC(=O)O)s1,17
14,O=C(O)CCn1c(=O)[nH]c(=O)n(CCC(=O)O)c1=O,33
15,O=C(Nc1ccccc1O)c1cccc(S(=O)(=O)N2CCCC2)c1,> 100
16,Cc1cc(S(=O)(=O)N2CCOCC2)ccc1OCC(=O)NCc1ccncc1,> 100
17,CC1CCCCC1N(Cc1ccccc1F)S(=O)(=O)c1ccc(S(=O)(=O)N(C)C)cc1 (stereo unspecified),> 100
18,O=C(O)CCc1ccc(-c2ccc(F)cc2)n1CC(=O)O,9
19,O=C(Nc1nnc(CCS(=O)(=O)c2ccc3ccccc3c2)s1)c1ccccc1,> 100

row,SMILES,IC50 [µM]
1,O=S(=O)(c1ccc(F)cc1)N1CCCC(c2nc(O)c3nnn(Cc4ccc(F)cc4)c3n2)C1 (stereo unspecified),> 100
2,CCOC(=O)c1cnc(SC(C)C(=O)O)nc1N (stereo unspecified),> 100
3,O=C(Nc1ccccc1O)c1cc(S(=O)(=O)N2CCCCCC2)ccc1Cl,> 100
4,O=S(=O)(O)CCSc1nnc(SCCS(=O)(=O)O)s1,> 100
5,COc1cc(S(=O)(=O)NC2CCCCC2C)ccc1-n1cnnn1 (stereo unspecified),> 100
6,Cc1oc(CSCC2CCCO2)cc1C(=O)O (stereo unspecified),16
7,O=C(O)c1cccc(S(=O)(=O)N2CCCC(c3nc(O)c4nnn(Cc5ccc(F)cc5)c4n3)C2)c1 (stereo unspecified),33
8,O=C(O)CCS(=O)(=O)CCC(=O)O,40
9,COc1cc(S(=O)(=O)N(Cc2ccc(Br)cc2)Cc2ccco2)ccc1-n1cnnn1,> 100
10,O=C(O)Cc1cc(S(=O)(=O)c2ccc(Sc3ccc(C(=O)O)cc3)cc2)ccc1C(=O)O,4
11,CCOC(=O)C(CCc1nn[nH]n1)(CCc1nn[nH]n1)C(=O)OCC,> 100
12,Cc1oc(CSCCSCc2cc(C(=O)O)c(C)o2)cc1C(=O)O,5
13,O=C(O)CC1OC(=O)c2cc3c(cc21)C(=O)OC3CC(=O)O (stereo unspecified),11
14,O=C(O)CNC1CS(=O)(=O)CC1O (stereo unspecified),> 100
15,Cc1oc(C)c(C(=O)O)c1COc1ccccc1C(=O)O,6
16,CCCNS(=O)(=O)c1ccc(OCC(=O)NCC2CCCO2)c(C)c1 (stereo unspecified),> 100
17,Cc1ccc2c(c1)c1nnc(SCc3ccc(CC(=O)O)cc3)nc1n2C(=O)O,15
18,Cc1cc(S(=O)(=O)NC2CCCC2)ccc1-n1cnnn1,> 100
19,Cc1cc(C)nc(SCc2nnc(SCC(=O)N3CCCCC3)n2-c2ccccc2)n1,> 100

# Molecular target: Human immunodeficiency virus type 1 integrase (Human immunodeficiency virus 1, UniProt Q7ZJM1)
# Assay: Inhibition of HIV1 integrase
# Sequence of Human immunodeficiency virus type 1 integrase (Q7ZJM1 whole entry): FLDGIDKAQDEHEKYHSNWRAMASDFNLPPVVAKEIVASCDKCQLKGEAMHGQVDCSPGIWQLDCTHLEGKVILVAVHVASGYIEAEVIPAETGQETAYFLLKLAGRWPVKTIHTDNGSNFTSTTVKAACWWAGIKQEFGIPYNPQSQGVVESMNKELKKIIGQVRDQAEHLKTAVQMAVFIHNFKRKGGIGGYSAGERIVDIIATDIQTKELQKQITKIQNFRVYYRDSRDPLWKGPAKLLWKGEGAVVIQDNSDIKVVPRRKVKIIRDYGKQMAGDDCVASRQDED
row,SMILES,IC50 [µM]
1,O=C(O)CCN1C(=O)/C(=C2/C(=O)N(CC(=O)O)c3ccccc32)SC1=S,> 100
2,O=C(O)CCc1ccc(-c2ccc(Cl)cc2)n1CC(=O)O,> 100
3,O=C(O)Cn1c(CCCCc2nc3ccccc3n2CC(=O)O)nc2ccccc21,> 100
4,O=C(O)CN1C(=O)/C(=C\c2ccc(-c3cccc(C(=O)O)c3)o2)SC1=S,> 100
5,O=C(O)Cc1cc(S(=O)(=O)c2ccc(Sc3ccc(C(=O)O)cc3)cc2)ccc1C(=O)O,> 100
6,Cc1oc(C)c(C(=O)O)c1COc1ccccc1C(=O)O,> 100

# Tested on: not listed separately
# Assay: Inhibition of endonuclease 4
row,SMILES,IC50 [µM]
1,O=C(O)CCN1C(=O)/C(=C2/C(=O)N(CC(=O)O)c3ccccc32)SC1=S,> 100
2,O=C(O)CCc1ccc(-c2ccc(Cl)cc2)n1CC(=O)O,> 100
3,O=C(O)Cn1c(CCCCc2nc3ccccc3n2CC(=O)O)nc2ccccc21,> 100
4,O=C(O)CN1C(=O)/C(=C\c2ccc(-c3cccc(C(=O)O)c3)o2)SC1=S,> 100
5,O=C(O)Cc1cc(S(=O)(=O)c2ccc(Sc3ccc(C(=O)O)cc3)cc2)ccc1C(=O)O,> 100
6,Cc1oc(C)c(C(=O)O)c1COc1ccccc1C(=O)O,> 100

# Tested on: not listed separately
# Assay: Selectivity index, IC50 for human recombinant APE1 over exonuclase 3
row,SMILES,Ratio IC50
1,O=C(O)CCN1C(=O)/C(=C2/C(=O)N(CC(=O)O)c3ccccc32)SC1=S,10
2,O=C(O)CCc1ccc(-c2ccc(Cl)cc2)n1CC(=O)O,> 25
3,O=C(O)Cn1c(CCCCc2nc3ccccc3n2CC(=O)O)nc2ccccc21,20
4,O=C(O)CN1C(=O)/C(=C\c2ccc(-c3cccc(C(=O)O)c3)o2)SC1=S,12
5,O=C(O)Cc1cc(S(=O)(=O)c2ccc(Sc3ccc(C(=O)O)cc3)cc2)ccc1C(=O)O,23
6,Cc1oc(C)c(C(=O)O)c1COc1ccccc1C(=O)O,16
